Source: US11504349B2, “Composition for preventing or treating TNF-related diseases, containing novel derivative as active ingredient, and method for inhibiting TNF activity by using same” (ILAB, priority 2017, dated 2022)

What was measured:
[1] = Cytotoxicity (CC50) in LM cells, MTT assay; assay type: cell-based; settings: mouse, LM cells (mouse fibroblasts); 50% cytotoxic concentration
Protocol: (§1) First, the addition of recombinant TNF to mouse fibroblast LM cells induces cell death, and thus, by using the same, the TNF-neutralization bioassay was constructed. In other words, LM cells were pretreated with TNF (20 ng/ml) and the compounds synthesized in the above examples at various concentrations (5×10^4 cells/well), and a sensitizer actinomycin D ([…]) was added, and cultured in a CO2 incubator for 24 hours, and then the MTT assay was carried out. At this time, 10 μl of MTT (5 mg/ml stock) was added, reacted for 4 hours, and then dissolved in DMSO to measure the absorbance at 570 nm. First, the TNF cell death inhibition/neutralization action of TNF-target expected compounds at single concentration (50 or 10 μM) was measured. Second, IC50 values were determined by treating with the compounds having an excellent effect at different concentrations. The % inhibition of TNF was calculated using the following formula: % inhibition of TNF=(OD value of a group treated with TNF and compound−OD value of TNF treated group/(OD value of TNF untreated group−OD value of TNF treated group)×100.
(§2) IC50 values were statistically analyzed using Prism 6 (GraphPad) (IC50: 50% inhibitory concentration, CC50: 50% cytotoxic concentration).

TNF = TNF (Homo sapiens, UniProt P01375); test: TNF-neutralization bioassay: TNF-induced cell death of LM cells (MTT); assay type: cell-based; settings: for inhibition at 50 µM: compound 50 μM, TNF 20 ng/ml, actinomycin D, LM cells, 24 hours; for IC50: inhibition of TNF-induced LM cell death
Chain of TNF (P01375 77-233 limits assumed): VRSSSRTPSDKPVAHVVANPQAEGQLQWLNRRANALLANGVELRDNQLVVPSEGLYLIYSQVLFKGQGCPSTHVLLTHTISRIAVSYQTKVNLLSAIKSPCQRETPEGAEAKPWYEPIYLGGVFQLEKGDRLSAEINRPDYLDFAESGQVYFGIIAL
Protocol: as §1, §2

## O=C(O)c1c(-c2cccc(F)c2)oc2ccc(Cl)cc2c1=O [Example 45, 2-(3-fluorophenyl)-3-carboxy-6-chloro-(4H)-4-benzopyranone]
[1]
  CC50 at 24 h: 42 µM
other
  melting point: 216 to 217 °C
TNF
  inhibition at 50 µM: 88.4%
  IC50: 18.5 µM

## O=C(O)c1c(-c2ccco2)oc2ccc(Cl)cc2c1=O [Example 23, 2-(2-furanyl)-3-carboxy-6-chloro-(4H)-4-benzopyranone]
[1]
  CC50 at 24 h: > 50 µM
other
  melting point: 196 to 198 °C
TNF
  inhibition at 50 µM: 70.1%
  IC50: 2.7 µM

## O=C(O)c1c(-c2cc(F)ccc2F)oc2ccc(Br)cc2c1=O [Example 63, 2-(2,5-difluorophenyl)-3-carboxy-6-bromo-(4H)-4-benzopyranone]
[1]
  CC50 at 24 h: 36 µM
other
  melting point: 152 to 153 °C
TNF
  inhibition at 50 µM: 100%
  IC50: 36.9 µM

## O=C(O)c1c(-c2cc(F)ccc2F)oc2ccc(Cl)cc2c1=O [Example 62, 2-(2,5-difluorophenyl)-3-carboxy-6-chloro-(4H)-4-benzopyranone]
[1]
  CC50 at 24 h: 17 µM
other
  melting point: 168 to 170 °C
TNF
  inhibition at 50 µM: 100%
  IC50: 3.8 µM

## COc1ccc(-c2oc3ccc(Br)cc3c(=O)c2C(=O)O)cc1OC [Example 40, 2-(3,4-dimethoxyphenyl)-3-carboxy-6-bromo-(4H)-4-benzopyranone]
[1]
  CC50 at 24 h: > 50 µM
other
  melting point: 242 to 243 °C
TNF
  inhibition at 50 µM: 100%
  IC50: 122 µM

## O=C(O)c1c(-c2ccc(Cl)cc2)oc2ccc(Cl)cc2c1=O [Example 71, 2-(4-chlorophenyl)-3-carboxy-6-chloro-(4H)-4-benzopyranone]
[1]
  CC50 at 24 h: 36 µM
other
  melting point: 227 to 228 °C
TNF
  inhibition at 50 µM: 97.9%
  IC50: 3.3 µM

## O=C(O)c1c(-c2cccc(F)c2)oc2cc(Cl)ccc2c1=O [Example 44, 2-(3-fluorophenyl)-3-carboxy-7-chloro-(4H)-4-benzopyranone]
[1]
  CC50 at 24 h: > 50 µM
other
  melting point: 160 to 163 °C
TNF
  inhibition at 50 µM: 93.2%
  IC50: 45.6 µM

## O=C(O)c1c(-c2cc(F)cc(F)c2)oc2ccc(Cl)cc2c1=O [Example 50, 2-(3,5-difluorophenyl)-3-carboxy-6-chloro-(4H)-4-benzopyranone]
[1]
  CC50 at 24 h: 36 µM
other
  melting point: 207 to 209 °C
TNF
  inhibition at 50 µM: 100%
  IC50: 5.1 µM

## O=C(O)c1c(-c2cccc(F)c2F)oc2cc(Cl)ccc2c1=O [Example 55, 2-(2,3-difluorophenyl)-3-carboxy-7-chloro-(4H)-4-benzopyranone]
[1]
  CC50 at 24 h: 25 µM
other
  melting point: ≥ 220 °C
TNF
  inhibition at 50 µM: 100%
  IC50: 33.6 µM

## O=C(O)c1c(-c2cccc(F)c2)oc2ccccc2c1=O [Example 16, 2-(3-fluorophenyl)-3-carboxy-(4H)-4-benzopyranone]
[1]
  CC50 at 24 h: > 50 µM
other
  melting point: 193 to 196 °C
TNF
  inhibition at 50 µM: 70.2%
  IC50: 16.8 µM

## O=C(O)c1c(-c2ccc(Cl)cc2)oc2ccc(Br)cc2c1=O [Example 72, 2-(4-chlorophenyl)-3-carboxy-6-bromo-(4H)-4-benzopyranone]
[1]
  CC50 at 24 h: > 50 µM
other
  melting point: 211 to 213 °C
TNF
  inhibition at 50 µM: 100%
  IC50: 20.8 µM

## O=C(O)c1c(-c2cccc(F)c2)oc2ccc(Br)cc2c1=O [Example 46, 2-(3-fluorophenyl)-3-carboxy-6-bromo-(4H)-4-benzopyranone]
[1]
  CC50 at 24 h: > 50 µM
other
  melting point: 222 to 223 °C
TNF
  inhibition at 50 µM: 100%
  IC50: 28.9 µM

## O=C(O)c1c(-c2cc(F)cc(F)c2)oc2ccccc2c1=O [Example 17, 2-(3,5-difluorophenyl)-3-carboxy-(4H)-4-benzopyranone]
[1]
  CC50 at 24 h: > 50 µM
other
  melting point: 208 to 209 °C
TNF
  inhibition at 50 µM: 71%
  IC50: 2.5 µM

## Cc1cccc2c(=O)c(C(=O)O)c(-c3cc(F)ccc3F)oc12 [Example 58, 2-(2,5-difluorophenyl)-3-carboxy-8-methyl-(4H)-4-benzopyranone]
other
  melting point: 170 to 172 °C
TNF
  inhibition at 50 µM: 33.8%

## COc1cccc2c(=O)c(C(=O)O)c(-c3cccc(C)c3)oc12 [Example 5, 2-(3-methylphenyl)-3-carboxy-8-methoxy-(4H)-4-benzopyranone]
other
  melting point: 192 to 195 °C
TNF
  inhibition at 50 µM: 34.4%

## O=C(O)c1c(-c2cccs2)oc2ccc(Cl)cc2c1=O [Example 35, 2-(2-thiophenyl)-3-carboxy-6-chloro-(4H)-4-benzopyranone]
other
  melting point: 202 to 204 °C
TNF
  inhibition at 50 µM: 28.1%

## O=C(O)c1c(-c2ccc(F)c(F)c2)oc2ccc(Cl)cc2c1=O [Example 67, 2-(3,4-difluorophenyl)-3-carboxy-6-chloro-(4H)-4-benzopyranone]
[1]
  CC50 at 24 h: 21 µM
other
  melting point: 195 to 198 °C
TNF
  inhibition at 50 µM: 100%
  IC50: 3.9 µM

## O=C(O)c1c(-c2cccc(F)c2F)oc2ccc(Cl)cc2c1=O [Example 56, 2-(2,3-difluorophenyl)-3-carboxy-6-chloro-(4H)-4-benzopyranone]
[1]
  CC50 at 24 h: 49 µM
other
  melting point: ≥ 120 °C
TNF
  inhibition at 50 µM: 100%
  IC50: 16.4 µM

## Cc1cccc2c(=O)c(C(=O)O)c(-c3ccc(Cl)cc3)oc12 [Example 68, 2-(4-chlorophenyl)-3-carboxy-8-methyl-(4H)-4-benzopyranone]
other
  melting point: 217 to 219 °C
TNF
  inhibition at 50 µM: 15.8%

## COc1cccc2c(=O)c(C(=O)O)c(-c3cccs3)oc12 [Example 12, 2-(2-thiophenyl)-3-carboxy-8-methoxy-(4H)-4-benzopyranone]
other
  melting point: 196 to 198 °C
TNF
  inhibition at 50 µM: 62.5%

## Cc1ccc2oc(-c3cc(F)cc(F)c3)c(C(=O)O)c(=O)c2c1 [Example 49, 2-(3,5-difluorophenyl)-3-carboxy-6-methyl-(4H)-4-benzopyranone]
other
  melting point: 238 to 240 °C
TNF
  inhibition at 50 µM: 37.7%

## COc1ccc2oc(-c3cccc(C)c3)c(C(=O)O)c(=O)c2c1 [Example 7, 2-(3-methylphenyl)-3-carboxy-6-methoxy-(4H)-4-benzopyranone]
other
  melting point: 198 to 199 °C
TNF
  inhibition at 50 µM: 47%

## COc1ccc2c(=O)c(C(=O)O)c(-c3ccc(OC)c(OC)c3)oc2c1 [Example 9, 2-(3,4-dimethoxyphenyl)-3-carboxy-7-methoxy-(4H)-4-benzopyranone]
other
  melting point: 208 to 210 °C
TNF
  inhibition at 50 µM: 49.2%

## O=C(O)c1c(-c2ccc(Cl)cc2)oc2ccccc2c1=O [Example 73, 2-(4-chlorophenyl)-3-carboxy-(4H)-4-benzopyranone]
other
  melting point: 212 to 213 °C
TNF
  inhibition at 50 µM: 42%

## COc1ccc2c(=O)c(C(=O)O)c(-c3ccco3)oc2c1 [Example 3, 2-(2-furanyl)-3-carboxy-7-methoxy-(4H)-4-benzopyranone]
other
  melting point: 217 to 219 °C
TNF
  inhibition at 50 µM: 26.3%

## O=C(O)c1c(-c2cccc(F)c2F)oc2ccc(Br)cc2c1=O [Example 57, 2-(2,3-difluorophenyl)-3-carboxy-6-bromo-(4H)-4-benzopyranone]
[1]
  CC50 at 24 h: 47 µM
other
  melting point: ≥ 120 °C
TNF
  inhibition at 50 µM: 100%
  IC50: 10.3 µM

## COc1cccc2c(=O)c(C(=O)O)c(-c3ccc(Cl)cc3)oc12 [Example 74, 2-(4-chlorophenyl)-3-carboxy-8-methoxy-(4H)-4-benzopyranone]
[1]
  CC50 at 24 h: > 50 µM
other
  melting point: 238 to 239 °C
TNF
  inhibition at 50 µM: 79%
  IC50: 52.5 µM

## COc1ccc2oc(-c3ccco3)c(C(=O)O)c(=O)c2c1 [Example 4, 2-(2-furanyl)-3-carboxy-6-methoxy-(4H)-4-benzopyranone]
other
  melting point: 205 to 207 °C
TNF
  inhibition at 50 µM: 24.6%

## COc1ccc(-c2oc3ccccc3c(=O)c2C(=O)O)cc1OC [Example 8, 2-(3,4-dimethoxyphenyl)-3-carboxy-(4H)-4-benzopyranone]
other
  melting point: 237 to 238 °C
TNF
  inhibition at 50 µM: 24.3%

## O=C(O)c1c(-c2cccs2)oc2ccc(Br)cc2c1=O [Example 36, 2-(2-thiophenyl)-3-carboxy-6-bromo-(4H)-4-benzopyranone]
other
  melting point: 210 to 212 °C
TNF
  inhibition at 50 µM: 27%

## O=C(O)c1c(-c2ccco2)oc2ccc(Br)cc2c1=O [Example 24, 2-(2-furanyl)-3-carboxy-6-bromo-(4H)-4-benzopyranone]
[1]
  CC50 at 24 h: > 50 µM
other
  melting point: 209 to 211 °C
TNF
  inhibition at 50 µM: 76.3%
  IC50: 2.5 µM

## Cc1cccc(-c2oc3cc(C)ccc3c(=O)c2C(=O)O)c1 [Example 26, 2-(3-methylphenyl)-3-carboxy-7-methyl-(4H)-4-benzopyranone]
other
  melting point: 152 to 155 °C
TNF
  inhibition at 50 µM: 45.1%
